# Source: patent US9855245B2, “Methods for improving lipid profiles using atrasentan” (AbbVie Inc., priority 2013, dated 2018)
# Values joined by “and” are separate entries in the source; they are usually repeats but may differ in a detail not shown here. Identical values can stand only once.
# Assays:
# [1] = system: subjects with type 2 diabetes and nephropathy; experiment: Example 2: Phase 2b randomized, double-blind, placebo-controlled 12-week study conducted in Japan
# Experimental: The primary efficacy endpoint in this study was the change from Baseline to Week 12 in log-transformed UACR with the primary analysis conducted using MMRM with fixed effects for treatment, visit, and treatment-by-visit interaction, with baseline measurement and baseline-by-visit interaction as covariates.
# All safety analyses were performed on treatment-emergent adverse events only. Treatment-emergent adverse events were defined as those that first occurred or worsened on or after the date of first dose of study drug through 30 days after the last dose of study drug.
# [2] = system: subjects with type 2 diabetes and nephropathy; experiment: Example 4: combined data of Examples 1 and 2, statin / non-statin sub-populations, total and LDL cholesterol; format: in vivo, human; parameters: Total C, Mean Change / LDL, Mean Change: unit not given here
# Experimental: A review of the data obtained from the studies detailed in Examples 1 and 2, above, with respect to total serum cholesterol and serum LDL cholesterol, indicated a meaningful reduction was achieved relative to baseline for both. For example, although the reduction in total serum cholesterol and serum LDL cholesterol for subjects receiving a 0.75 mg dose of atrasentan, after 12 weeks of therapy, varied, the average for both of the studies detailed in Examples 1 and 2 was approximately 14%. As a result, the data obtained from these studies as further reviewed subsequent to collection and a sub-population of subjects in each study was identified as receiving or taking a statin in combination with the atrasentan dose (either a 0.75 mg or 1.25 mg dose). The data relating to the impact of atrasentan on total serum cholesterol and serum LDL cholesterol from each study for this sub-population was combined and a new average (mean) baseline, as well as change relative thereto over the time period of the study, was calculated for each of the total serum cholesterol and serum LDL cholesterol. For purposes of comparison, data relating to the impact of atrasentan on total serum cholesterol and serum LDL cholesterol for each study for subjects that were not receiving or taking a statin was combined and a new average (mean) baseline, as well as change relative thereto over the time period of the study, was also calculated for each of the total serum cholesterol and serum LDL cholesterol.
# [3] = 1.25 mg/day, baseline to final on-treatment measurement
# [4] = subjects not receiving statins, 0.75 mg
# [5] = subjects receiving statins and 0.75 mg of atrasentan
smiles,measurement,setting,value
"CCCCN(CCCC)C(=O)CN1C[C@H](c2ccc3c(c2)OCO3)[C@@H](C(=O)O)[C@@H]1c1ccc(OC)cc1 [Atrasentan, (2R,3R,4S)-4-(1,3-benzodioxol-5-yl)-1-[2-(dibutylamino)-2-oxoethyl]-2-(4-methoxyphenyl)pyrrolidine-3-carboxylic acid]","HDL-C, Difference (95% CI) from placebo",[1]; 1.25 mg/day,"−2.3 (−8.24, 3.73) mg/dL"
same,"HDL-C, Final On-Treatment Visit Mean (SD)",[1]; 1.25 mg/day,46.4 (12.12) mg/dL
same,"HDL-C, LS Mean Change from Baseline (SE)",[1]; 1.25 mg/day,−4.1 (1.91) mg/dL
same,Had ≧30% Reduction in UACR and No Edema (no moderate or severe adverse event of edema),[1]; 1.25 mg/day,9 (52.9) Number (%) of Subjects
same,"Hemoglobin, Difference (95% CI) from placebo",[1]; 1.25 mg/day,"−1.14 (−1.773, −0.497) g/dL"
same,"Hemoglobin, Final On-Treatment Visit Mean (SD)",[1]; 1.25 mg/day,11.67 (2.300) g/dL
same,"LDL-C, Difference (95% CI) from placebo",[1]; 1.25 mg/day,"−19.7 (−34.02, −5.36) mg/dL"
same,"LDL-C, Final On-Treatment Visit Mean (SD)",[1]; 1.25 mg/day,92.1 (35.00) mg/dL
same,"LDL-C, LS Mean Change from Baseline (SE)",[1]; 1.25 mg/day,−18.9 (4.57) mg/dL
same,Percentage of Subjects with ≧30% Reduction in Log-Transformed UACR from Baseline to Final Measurement,[1]; 1.25 mg/day,64.7%
same,Percentage of Subjects with ≧40% Reduction in Log-Transformed UACR from Baseline to Final Measurement,[1]; 1.25 mg/day,64.7%
same,Percentage of Subjects with ≧50% Reduction in Log-Transformed UACR from Baseline to Final Measurement,[1]; 1.25 mg/day,52.9%
same,"Triglycerides, Difference (95% CI) from placebo",[1]; 1.25 mg/day,"−16.5 (−58.63, 25.64) mg/dL"
same,"Triglycerides, Final On-Treatment Visit Mean (SD)",[1]; 1.25 mg/day,160.6 (73.37) mg/dL
same,"Triglycerides, LS Mean Change from Baseline (SE)",[1]; 1.25 mg/day,−12.4 (68.76) mg/dL
same,"Weight, Difference (95% CI) from placebo",[1]; 1.25 mg/day,"0.4 (−0.96, 1.68) kg"
same,"Weight, Final On-Treatment Visit Mean (SD)",[1]; 1.25 mg/day,74.9 (14.51) kg
same,fatigue leading to discontinuation,[1]; 1.25 mg/day,3.1%
same,"geometric mean reduction in UACR, baseline to final on-treatment measurement",[1]; 1.25 mg/day,53.76%
same,incidence of peripheral edema,[1]; 1.25 mg/day,31.6%
same,mean (non-ambulatory) diastolic blood pressure change from baseline to last on-treatment visit,[1]; 1.25 mg/day,−4.33 mmHg
same,mean (non-ambulatory) systolic blood pressure change from baseline to last on-treatment visit,[1]; 1.25 mg/day,−2.93 mmHg
same,mean ambulatory diastolic blood pressure change from baseline to Week 10,[1]; 1.25 mg/day,−6.8 mmHg
same,mean ambulatory systolic blood pressure change from baseline to Week 10,[1]; 1.25 mg/day,−7.2 mmHg
same,mean duration of edema,[1]; 1.25 mg/day,54.8 days
same,peripheral edema leading to discontinuation,[1]; 1.25 mg/day,4.7%
same,subjects discontinued from the study,[1]; 1.25 mg/day,26.3%
same,subjects who discontinued study drug because of adverse events,[1]; 1.25 mg/day,26.3%
same,UACR Between-group Comparison Difference (95% CI),[1]; 1.25 mg/day vs placebo,"−0.80 (−1.09, −0.52)"
same,"Weight, LS Mean Change from Baseline (SE)","[1]; 1.25 mg/day, Week 12",0.4 kg and 0.4 (0.49) kg
same,"mean eGFR, difference between atrasentan and placebo","[1]; 1.25 mg/day, Weeks 6, 8, and 10",statistically significant
same,UACR Change from Baseline LS Mean (SE),[1]; [3],−0.77 (0.10) log mg/g creatinine
same,UACR Geometric Mean Change (Percent),[1]; [3],−53.76%
same,mean HDL-C change,"[1]; all treatment groups, changes not clinically meaningful",decreased slightly
same,"cholesterol and LDL-C, differences from placebo","[1]; both atrasentan groups (0.75 mg, 1.25 mg)",statistically significant
same,hemoglobin relative to placebo,"[1]; both atrasentan groups, at Week 2 and throughout the study",Statistically significantly mean decreases
same,"reduction in total serum cholesterol and serum LDL cholesterol relative to baseline, average for both studies (Examples 1 and 2)","[2]; 0.75 mg dose, after 12 weeks of therapy",approximately 14%
same,"LDL, % Change","[2]; Non-Statin, 0.75 mg",−13.1%
same,"LDL, Mean Change","[2]; Non-Statin, 0.75 mg",−13.4
same,"Total C, % Change","[2]; Non-Statin, 0.75 mg",−9.3%
same,"Total C, Mean Change","[2]; Non-Statin, 0.75 mg",−14.9
same,"LDL, % Change","[2]; Non-Statin, 1.25 mg",−18.8%
same,"LDL, Mean Change","[2]; Non-Statin, 1.25 mg",−21.0
same,"Total C, % Change","[2]; Non-Statin, 1.25 mg",−12.8%
same,"Total C, Mean Change","[2]; Non-Statin, 1.25 mg",−18.4
same,"LDL, % Change","[2]; Statin sub-population, 0.75 mg",−15.4%
same,"LDL, Mean Change","[2]; Statin sub-population, 0.75 mg",−12.8
same,"Total C, % Change","[2]; Statin sub-population, 0.75 mg",−10.4%
same,"Total C, Mean Change","[2]; Statin sub-population, 0.75 mg",−17.1
same,"LDL, % Change","[2]; Statin sub-population, 1.25 mg",−14.2%
same,"LDL, Mean Change","[2]; Statin sub-population, 1.25 mg",−11.6
same,"Total C, % Change","[2]; Statin sub-population, 1.25 mg",−10.4%
same,"Total C, Mean Change","[2]; Statin sub-population, 1.25 mg",−17.1
same,reduction in LDL cholesterol,[2]; [4],13%
same,reduction in total cholesterol,[2]; [4],9%
same,reduction in LDL cholesterol,[2]; [5],15%
same,reduction in total cholesterol,[2]; [5],10%
